pEC50: −log10 of the molar value. Where two headings read alike, the source gives them in different places. Ends that are not written are not given here.
Experiments:
human GIP receptor = molecular target: T1, human GIP receptor (Homo sapiens, UniProt P48546); assay: cAMP accumulation assay (HitHunter cAMP XS) in transiently transfected COS-7 cells expressing the human GIP receptor; format: cell-based; details: for Emax at 10 µM: COS-7, read-out: Emax (10 μM), GIP receptor; for fold (fold change of native GIP), GIP receptor: EC50 relative to native GIP; for Emax at 1 µM: COS-7, read-out: Emax, GIP receptor
T1 construct: host or cells: COS-7 (transient, calcium phosphate; pCMV-Script vector)
T1 sequence (P48546 22-466): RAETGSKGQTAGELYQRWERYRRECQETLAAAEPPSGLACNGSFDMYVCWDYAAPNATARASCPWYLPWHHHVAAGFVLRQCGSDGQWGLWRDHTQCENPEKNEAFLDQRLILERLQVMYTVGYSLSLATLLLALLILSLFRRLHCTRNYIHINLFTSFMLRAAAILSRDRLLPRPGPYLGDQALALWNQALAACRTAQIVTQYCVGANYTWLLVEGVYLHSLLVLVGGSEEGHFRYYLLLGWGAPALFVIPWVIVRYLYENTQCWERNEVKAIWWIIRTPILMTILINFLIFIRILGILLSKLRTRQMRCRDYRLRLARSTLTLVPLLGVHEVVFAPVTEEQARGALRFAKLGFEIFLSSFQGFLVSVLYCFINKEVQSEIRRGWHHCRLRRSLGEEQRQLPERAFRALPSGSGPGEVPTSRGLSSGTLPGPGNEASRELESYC
Protocol: (§1) The day after, the cells were washed twice with Hepes buffered saline (HBS) buffer and incubated with HBS and 1 mM 3-isobutyl-1-methylxanthine (IBMX) for 30 min at 37° C. Ligands were added and incubated for 30 min at 37° C. The HitHunter™ cAMP XS assay (DiscoveRx) was carried out according to the manufacturer's instructions.

[1] = system: bone resorption (serum C-terminal cross-linking telopeptide of type I collagen, CTX); assay: Human study 1: bone resorption by serum CTX after subcutaneous injection of GIP or GLP-2; format: in vivo
Protocol: Method: Eight healthy young men were enrolled. […] Participants arrived in the morning (fasted overnight) and received the injection around 8.30 a.m. Blood samples were collected before (−25 and −10 min) and every 30 minutes after injection (30, 60, 90, 120, 180 and 240 min). After last participant's last visit, bone resorption was determined by measurements of serum C-terminal cross-linking telopeptide of type I collagen (CTX; IDS Immunodiagnostic Systems GmbH, Frankfurt am Main, Germany)

human GLP-2 receptor = molecular target: T2, human GLP-2 receptor (Homo sapiens, UniProt O95838); assay: cAMP accumulation assay (HitHunter cAMP XS) in transiently transfected COS-7 cells expressing the human GLP-2 receptor; format: cell-based; details: for Emax at 10 µM: COS-7, read-out: Emax (10 μM), GLP-2 receptor; for fold (fold change of native GLP-2), GLP-2 receptor: EC50 relative to native GLP-2; for EC50: EC50(nM), GLP-2 receptor; for Emax at 1 µM: COS-7, read-out: Emax, GLP-2 receptor
T2 construct: host or cells: COS-7 (transient, calcium phosphate; pCMV-Script vector)
T2 sequence (O95838 1-553): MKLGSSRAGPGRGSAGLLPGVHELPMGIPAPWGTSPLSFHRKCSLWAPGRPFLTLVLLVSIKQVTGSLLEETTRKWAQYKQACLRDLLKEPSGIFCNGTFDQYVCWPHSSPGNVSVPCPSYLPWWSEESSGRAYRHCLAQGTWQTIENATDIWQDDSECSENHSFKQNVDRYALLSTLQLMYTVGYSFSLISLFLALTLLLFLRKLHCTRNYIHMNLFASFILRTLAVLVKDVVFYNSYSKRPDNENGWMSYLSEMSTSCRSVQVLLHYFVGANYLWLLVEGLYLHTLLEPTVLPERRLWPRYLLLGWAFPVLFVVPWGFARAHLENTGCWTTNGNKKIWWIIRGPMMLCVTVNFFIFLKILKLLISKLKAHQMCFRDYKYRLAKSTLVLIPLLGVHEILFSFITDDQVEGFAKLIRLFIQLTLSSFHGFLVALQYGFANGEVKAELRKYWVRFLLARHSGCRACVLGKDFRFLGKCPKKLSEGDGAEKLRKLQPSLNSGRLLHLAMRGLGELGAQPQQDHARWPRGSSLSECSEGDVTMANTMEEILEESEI
Protocol: as §1

[2] = logEC50, GIP receptor, Table 2, log value, cAMP, COS-7
[3] = logEC50, GLP-2 receptor, Table 2, cAMP, COS-7
[4] = logEC50, GLP-2 receptor, Table 1, cAMP, COS-7
[5] = logEC50, GIP receptor, Table 1, log value, cAMP, COS-7

Compound | Emax at 10 µM (human GIP receptor) [%] | Emax at 10 µM (human GLP-2 receptor) [%] | fold (fold change of native GIP), GIP receptor (human GIP receptor; Table 1) [fold] | fold (fold change of native GLP-2), GLP-2 receptor (human GLP-2 receptor; Table 1) [fold] | also measured
HADGTFSSDYSTILDNLAARDFINWLIQTKITD [Co-agonist 13] | 91 | 99 | 135 | 9.2 | pEC50 (human GIP receptor; [5]): 7.92; pEC50 (human GLP-2 receptor; [4]): 7.95
HAEGSFISDYSTILDNLAARDFINWLIQTKITD [Co-agonist 4] | 83 | 90 | 427 | 21 | pEC50 (human GIP receptor; [5]): 7.42; EC50 (human GLP-2 receptor; Table 1, cAMP, COS-7): 25 nM; pEC50 (human GLP-2 receptor; [4]): 7.59
HAEGTFISDMNTILDNLAARDFINWLIQTKITD [Co-agonist 6] | 83 | 70 | 1933 | 50 | 
HAEGTFISDYSIAMDKLAARDFINWLIQTKITD [Co-agonist 7] | 92 | 78 | 292 | 293 | pEC50 (human GIP receptor): 7.59
HAEGTFISDYSTILDNIHQQDFINWLIQTKITD [Co-agonist 8] | 100 | 22 | 66 |  | pEC50 (human GLP-2 receptor): < 5.00
HAEGTFISDYSTILDNLAARDFINWLIQTKGKK [Co-agonist 10] | 100 | 77 | 61 | 18 | pEC50 (human GLP-2 receptor): 7.66
HAEGTFISDYSTILDNLAARDFINWLIQTKITD [Co-agonist 1] |  |  | 337 | 82 | pEC50 (human GIP receptor): 7.53; Emax at 1 µM (human GIP receptor): 100%; Emax at 1 µM (human GLP-2 receptor): 93%
HAEGTFISDYSTILDNLAARDFINWLIQTKITDNDWKHNITQ [Co-agonist 2] |  |  | 135 | 121 | pEC50 (human GIP receptor): 7.92; Emax at 1 µM (human GIP receptor): 100%; Emax at 1 µM (human GLP-2 receptor): 93%
HAEGTFISDYSTILDNLAARDFVNWLLAQKITD [Co-agonist 9] | 100 | 67 | 36 | 103 | pEC50 (human GIP receptor): 8.50
HAEGTFSDEYSTILDNLAARDFINWLIQTKITD [Co-agonist 5] | 75 | 91 | 5124 | 5.2 | EC50 (human GLP-2 receptor; Table 1, cAMP, COS-7): 6.2 nM
HGDGTFISDYSTILDNLAARDFINWLIQTKITD [Co-agonist 11] | 95 | 87 | 36 | 20 | pEC50 (human GIP receptor; [5]): 8.50; pEC50 (human GLP-2 receptor; [4]): 7.62
HVDGTFISDYSTILDNLAARDFINWLIQTKITD [Co-agonist 12] | 96 | 81 | 12 | 21 | pEC50 (human GIP receptor; [5]): 8.96; pEC50 (human GLP-2 receptor; [4]): 7.60

The next lines start with results.

Emax at 10 µM (human GIP receptor) [%] | Emax at 10 µM (human GLP-2 receptor) [%] | fold (fold change of native GIP), GIP receptor (human GIP receptor; Table 1) [fold] | fold (fold change of native GLP-2), GLP-2 receptor (human GLP-2 receptor; Table 1) [fold] | Compound | also measured
22 |  |  |  | CC[C@H](C)[C@H](NC(=O)[C@H](Cc1ccccc1)NC(=O)[C@H](CC(=O)O)NC(=O)[C@H](CCCNC(=N)N)NC(=O)[C@H](C)NC(=O)[C@H](C)NC(=O)[C@H](CC(C)C)NC(=O)[C@H](CC(N)=O)NC(=O)[C@H](CC(=O)O)NC(=O)[C@H](CC(C)C)NC(=O)[C@@H](NC(=O)[C@@H](NC(=O)[C@H](CC(N)=O)NC(=O)[C@H](CCSC)NC(=O)[C@H](CCC(=O)O)NC(=O)[C@H](CC(=O)O)NC(=O)[C@H](CO)NC(=O)[C@H](Cc1ccccc1)NC(=O)[C@H](CO)NC(=O)CNC(=O)[C@H](CC(=O)O)NC(=O)[C@H](C)NC(=O)[C@@H](N)Cc1c[nH]cn1)[C@@H](C)O)[C@@H](C)CC)C(=O)N[C@@H](CC(N)=O)C(=O)N[C@@H](Cc1c[nH]c2ccccc12)C(=O)N[C@@H](CC(C)C)C(=O)N[C@H](C(=O)N[C@@H](CCC(N)=O)C(=O)N[C@H](C(=O)N[C@@H](CCCCN)C(=O)N[C@H](C(=O)N[C@H](C(=O)N[C@@H](CC(=O)O)C(=O)O)[C@@H](C)O)[C@@H](C)CC)[C@@H](C)O)[C@@H](C)CC [GLP-2, reference compound] | EC50 (human GIP receptor; EC50(nM), GIP receptor, Table 1, cAMP, COS-7): 56 nM; reduction in bone resorption (CTX) ([1]; 200 μg GIP and 800 μg GLP-2, each alone, s.c., restated in Example 4): ~50%; bone resorption (CTX), maximum effect, % of base line ([1]; human GLP-2 800 μg s.c., healthy young men, 180 min after administration): 63.4±3.4 % of base line
100 | 96 |  |  | HADGTFISDYSKILDNLAARDFINWLIQTKITK [Co-agonist 24] | fold (fold change of native GIP), GIP receptor (human GIP receptor; Table 2): 1.7 fold; pEC50 (human GIP receptor; [2]): 9.82; fold (fold change of native GLP-2), GLP-2 receptor (human GLP-2 receptor; Table 2): 0.62 fold
92 | 92 |  |  | HADGTFISDYSTIKDNLAARDFINWLIQTKITK [Co-agonist 25] | fold (fold change of native GIP), GIP receptor (human GIP receptor; Table 2): 4.9 fold; fold (fold change of native GLP-2), GLP-2 receptor (human GLP-2 receptor; Table 2): 2.9 fold; pEC50 (human GLP-2 receptor; [3]): 8.46
100 | 100 |  |  | HADGTFISDYSTILDKLAARDFINWLIQTKITK [Co-agonist 26] | fold (fold change of native GIP), GIP receptor (human GIP receptor; Table 2): 0.34 fold; pEC50 (human GIP receptor; [2]): 10.52; fold (fold change of native GLP-2), GLP-2 receptor (human GLP-2 receptor; Table 2): 0.26 fold; pEC50 (human GLP-2 receptor; [3]): 9.51
100 | 94 |  |  | HADGTFISDYSTILDNLAARDFINWLIQTKGKKNDWKHNITQ [Co-agonist 34] | pEC50 (human GLP-2 receptor; [3]): 8.94
95 | 74 | 6.7 | 68 | HADGTFISDYSTILDNLAARDFINWLIQTKGTD [Co-agonist 16] | pEC50 (human GLP-2 receptor; [4]): 7.06
95 | 88 | 4.5 | 21 | HADGTFISDYSTILDNLAARDFINWLIQTKIKD [Co-agonist 17] | pEC50 (human GLP-2 receptor; [4]): 7.61
100 | 100 |  |  | HADGTFISDYSTILDNLKARDFINWLIQTKITK [Co-agonist 27] | fold (fold change of native GIP), GIP receptor (human GIP receptor; Table 2): 6.2 fold; fold (fold change of native GLP-2), GLP-2 receptor (human GLP-2 receptor; Table 2): 0.47 fold
92 | 104 | 36 | 5.6 | HADGTFISEYSTILDNLAARDFINWLIQTKITD [Co-agonist 15] | pEC50 (human GIP receptor; [5]): 8.50
98 | 80 |  |  | HADGTFSSDYSTILDNLAAKDFINWLIQTKITD [Co-agonist 20] | 
